# Data as given in US20260176265A1 (Cancer Research Technology Limited, priority 2022, published 2026).
# Legend:
# [1] = target: CtermHisTag-mEGFR Triple Mutant - C797S, L858R, T790M (Homo sapiens, UniProt P00533, C797S/L858R/T790M); experiment: TR-FRET probe displacement assay, EGFR triple mutant; type: binding; conditions: T790M 1.25 nM, probe 100 nM, 30 mins room temperature
# How it was run: (§1)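 Probe displacement from His-tagged wild-type or triple-mutant EGFR measured by TR-FRET (excitation 337 nm, emission 490/520 nm). Compounds spanned final concentrations from 3 to 100000 nM over ten points; technical replicates, repeated twice biologically.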
# [2] = target: CtermHisTag-mEGFR Wild type (Homo sapiens, UniProt P00533); experiment: TR-FRET probe displacement assay, EGFR wild type; type: binding; conditions: EGFR wild type 1.25 nM, probe 100 nM, 30 mins room temperature
# How it was run: as §1
# [3] = target: T1, Phospho-EGFR (Tyr1068) in H1975 cells (Homo sapiens, UniProt P00533, L858R/T790M); experiment: HTRF pEGFR/total EGFR assay in H1975 cells; type: cell-based; conditions: compound 3 hours, ratio pEGFR/total EGFR
# T1 construct: host or cells: H1975
# How it was run: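 H1975 cells (EGFR L858R/T790M) adhered 24 h, then compound-treated for 3 h in duplicate, 0.1% DMSO final. Lysates read by HTRF at 665/620 nm for phospho-Tyr1068 and total EGFR. Value is pEGFR/total EGFR ratio as % of 0 uM control.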
# [4] = target: T2, Phospho-EGFR (Tyr1068) in H1975 C797S cells (Homo sapiens, UniProt P00533, C797S/L858R/T790M); experiment: HTRF pEGFR/total EGFR assay in H1975 C797S cells; type: cell-based; conditions: H1975 C797S cells (CRISPR), compound 3 hours, ratio pEGFR/total EGFR
# T2 construct: endogenous in cells; host or cells: H1975 C797S (CRISPR-edited in house from ATCC CRL-5908)
# How it was run: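 Phospho-EGFR (Tyr1068) and total EGFR were measured by HTRF (665 and 620 nm) in lysates of NGS-validated H1975 EGFR C797S cells. Cells were dosed for 3 h in duplicate, 0.1% DMSO final. Read-out is the pEGFR/total EGFR ratio relative to the 0 uM control, as percent.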
# [5] = target: T3, Phospho-EGFR (Tyr1068) in A431 cells (Homo sapiens, UniProt P00533); experiment: HTRF pEGFR/total EGFR assay in A431 cells (EGF stimulated); type: cell-based; conditions: compound 2.5 hours then 100 ng/ml EGF 30 mins, ratio pEGFR/total EGFR
# T3 construct: endogenous in cells; host or cells: A431
# How it was run: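 HTRF readout (665 and 620 nm) of Tyr1068-phosphorylated versus total EGFR in lysed A431 cells, expressed as ratio relative to 0uM control (%). Compound exposure 2.5 h in duplicate at 0.1% DMSO, with 100 ng/ml EGF added for 30 min.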
# T2 sequence (P00533 25-1210 T790M/C797S/L858R): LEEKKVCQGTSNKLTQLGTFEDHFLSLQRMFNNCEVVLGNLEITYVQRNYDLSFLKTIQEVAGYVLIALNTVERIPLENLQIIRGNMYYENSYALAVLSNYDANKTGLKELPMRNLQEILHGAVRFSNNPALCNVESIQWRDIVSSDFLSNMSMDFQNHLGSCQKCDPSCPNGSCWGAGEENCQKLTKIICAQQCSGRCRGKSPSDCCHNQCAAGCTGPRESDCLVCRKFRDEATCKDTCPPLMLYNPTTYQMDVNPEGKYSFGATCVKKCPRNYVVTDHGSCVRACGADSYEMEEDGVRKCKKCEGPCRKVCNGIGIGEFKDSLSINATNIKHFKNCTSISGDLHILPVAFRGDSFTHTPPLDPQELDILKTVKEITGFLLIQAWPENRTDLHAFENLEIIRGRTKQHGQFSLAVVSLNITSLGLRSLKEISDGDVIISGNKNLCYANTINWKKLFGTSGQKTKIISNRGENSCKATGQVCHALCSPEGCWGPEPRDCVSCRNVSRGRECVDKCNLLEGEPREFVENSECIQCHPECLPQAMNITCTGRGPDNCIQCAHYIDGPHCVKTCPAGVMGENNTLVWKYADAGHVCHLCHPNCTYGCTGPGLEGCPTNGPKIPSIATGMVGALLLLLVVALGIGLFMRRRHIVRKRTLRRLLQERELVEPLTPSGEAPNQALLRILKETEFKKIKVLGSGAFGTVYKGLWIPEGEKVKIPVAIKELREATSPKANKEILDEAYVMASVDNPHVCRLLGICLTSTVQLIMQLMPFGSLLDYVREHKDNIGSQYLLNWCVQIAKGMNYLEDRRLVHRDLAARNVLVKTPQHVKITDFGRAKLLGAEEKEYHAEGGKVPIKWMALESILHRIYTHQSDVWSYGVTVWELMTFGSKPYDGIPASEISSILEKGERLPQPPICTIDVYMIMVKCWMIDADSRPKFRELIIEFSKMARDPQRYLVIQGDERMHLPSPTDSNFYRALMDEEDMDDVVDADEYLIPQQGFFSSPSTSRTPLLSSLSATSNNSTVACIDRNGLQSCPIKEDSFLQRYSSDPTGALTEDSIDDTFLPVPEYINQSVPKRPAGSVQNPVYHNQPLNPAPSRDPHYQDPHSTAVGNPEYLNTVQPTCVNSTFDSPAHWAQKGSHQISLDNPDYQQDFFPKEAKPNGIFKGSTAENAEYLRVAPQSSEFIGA
# Sequence of CtermHisTag-mEGFR Triple Mutant - C797S, L858R, T790M (P00533 25-1210 T790M/C797S/L858R): as above
# T3 sequence (P00533 25-1210): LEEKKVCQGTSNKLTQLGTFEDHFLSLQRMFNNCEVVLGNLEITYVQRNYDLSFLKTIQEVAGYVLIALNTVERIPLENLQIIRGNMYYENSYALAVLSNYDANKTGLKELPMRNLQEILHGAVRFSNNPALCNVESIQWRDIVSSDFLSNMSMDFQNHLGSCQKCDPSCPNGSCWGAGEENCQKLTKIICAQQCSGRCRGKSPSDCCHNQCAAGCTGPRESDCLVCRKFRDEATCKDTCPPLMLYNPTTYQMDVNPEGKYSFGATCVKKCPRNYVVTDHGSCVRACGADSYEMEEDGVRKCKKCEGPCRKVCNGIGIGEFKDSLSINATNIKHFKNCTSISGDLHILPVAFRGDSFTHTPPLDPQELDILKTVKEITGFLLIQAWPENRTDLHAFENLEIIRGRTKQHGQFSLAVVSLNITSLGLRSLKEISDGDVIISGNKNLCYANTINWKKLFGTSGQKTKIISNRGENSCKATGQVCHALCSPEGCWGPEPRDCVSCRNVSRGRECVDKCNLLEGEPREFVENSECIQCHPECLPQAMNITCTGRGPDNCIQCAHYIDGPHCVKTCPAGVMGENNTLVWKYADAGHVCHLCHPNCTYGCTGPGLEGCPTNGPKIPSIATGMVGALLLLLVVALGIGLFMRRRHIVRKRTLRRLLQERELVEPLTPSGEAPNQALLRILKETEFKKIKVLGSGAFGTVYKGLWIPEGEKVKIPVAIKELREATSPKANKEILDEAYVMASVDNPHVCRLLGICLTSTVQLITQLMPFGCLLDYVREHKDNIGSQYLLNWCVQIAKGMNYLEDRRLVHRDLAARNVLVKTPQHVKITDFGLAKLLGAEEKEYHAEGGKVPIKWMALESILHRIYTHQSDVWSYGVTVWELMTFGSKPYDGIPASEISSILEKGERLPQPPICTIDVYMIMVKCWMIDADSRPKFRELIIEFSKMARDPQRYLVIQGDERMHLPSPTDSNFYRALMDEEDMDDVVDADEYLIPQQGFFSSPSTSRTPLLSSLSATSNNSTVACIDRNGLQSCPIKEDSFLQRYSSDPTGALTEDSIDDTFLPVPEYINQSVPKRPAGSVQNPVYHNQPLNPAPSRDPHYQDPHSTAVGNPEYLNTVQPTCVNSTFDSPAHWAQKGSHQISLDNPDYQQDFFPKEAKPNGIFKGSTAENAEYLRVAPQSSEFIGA
# Sequence of CtermHisTag-mEGFR Wild type (P00533 25-1210): as above
Structure (SMILES),IC50 [1],IC50 [2],IC50 [3],IC50 [4],IC50 [5]
"C#Cc1cc(NC(=O)NC2CCCC2)nc2nc(Nc3ccc(N4CCN(C5COC5)CC4)cc3)ncc12 [Example 76, 3-Cyclopentyl-1-[5-ethynyl-2-({4-[4-(oxetan-3-yl)piperazin-1-yl]phenyl}amino)pyrido[2,3-d]pyrimidin-7-yl]urea]",< 0.02 µM,< 1 µM,< 0.5 µM,< 0.5 µM,< 0.5 µM
"C#Cc1cc(NC(=O)NC2CCCC2)nc2nc(Nc3ccc(N(C)C(C)=O)cc3)ncc12 [Example 77, N-[4-((7-[(Cyclopentylcarbamoyl)amino]-5-ethynyl)pyrido[2,3-d]pyrimidin-2-ylamino)phenyl]-N-methylacetamide]",< 0.02 µM,< 1 µM,0.5 to 1 µM,> 3 µM,> 3 µM
"C#Cc1cc(NC(=O)NC2CCCC2)nc2nc(Nc3ccc(N(C)C(=O)CN4CCC4)cc3)ncc12 [Example 78, 2-(Azetidin-1-yl)-N-[4-((7-[(cyclopentylcarbamoyl)amino]-5-ethynyl)pyrido[2,3-d]pyrimidin-2-ylamino)phenyl]-N-methylacetamide]",0.1 to 1 µM,1 to 10 µM,> 3 µM,> 3 µM,> 3 µM
"C#Cc1cc(NC(=O)NC2CCCC2)nc2nc(Nc3ccc(OCCN(C)C)cc3)ncc12 [Example 79, 3-Cyclopentyl-1-[2-((4-[2-(dimethylamino)ethoxyl]phenylamino)-5-ethynyl)pyrido[2,3-d]pyrimidin-7-yl]urea]",< 0.02 µM,< 1 µM,< 0.5 µM,< 0.5 µM,> 3 µM
C#Cc1cc(NC(=O)NC2CCCC2)nc2nc(Nc3ccc(OC4CN(C)C4)cc3)ncc12 [Example 80],< 0.02 µM,< 1 µM,> 3 µM,< 0.5 µM,1 to 3 µM
"C#Cc1cc(NC(=O)NC2CCCC2)nc2nc(Nc3ccc(S(C)(=O)=O)cc3)ncc12 [Example 81, 3-Cyclopentyl-1-{5-ethynyl-2-[(4-methanesulfonylphenyl)amino]pyrido[2,3-d]pyrimidin-7-yl}urea]",< 0.02 µM,< 1 µM,0.5 to 1 µM,1 to 3 µM,0.5 to 1 µM
"C#Cc1cc(NC(=O)NC2CCCC2)nc2nc(Nc3ccc(S(=O)(=O)N(C)C)cc3)ncc12 [Example 82, 3-Cyclopentyl-1-(2-([4-(dimethylsulfamoyl)phenyl]amino-5-ethynyl)pyrido[2,3-d]pyrimidin-7-yl)urea]",< 0.02 µM,> 10 µM,> 3 µM,> 3 µM,> 3 µM
C#Cc1cc(NC(=O)NC2CCCC2)nc2nc(Nc3ccc(N(C)C(=O)CN(C)C)cc3)ncc12 [Example 83],< 0.02 µM,< 1 µM,< 0.5 µM,< 0.5 µM,> 3 µM
C#Cc1cc(NC(=O)NC2CCCC2)nc2nc(Nc3ccc(S(=O)(=O)N(C)CCN(C)C)cc3)ncc12 [Example 84],< 0.02 µM,< 1 µM,< 0.5 µM,< 0.5 µM,> 3 µM
C#Cc1cc(NC(=O)NC2CCCC2)nc2nc(Nc3cccc(CN4CC(CS(C)(=O)=O)C4)c3)ncc12 [Example 85],0.02 to 0.1 µM,< 1 µM,> 3 µM,< 0.5 µM,1 to 3 µM
C#Cc1cc(NC(=O)NC2CCCC2)nc2nc(Nc3cccc(CN4CCC(CS(C)(=O)=O)C4)c3)ncc12 (stereo not drawn) [Example 86],0.02 to 0.1 µM,< 1 µM,> 3 µM,0.5 to 1 µM,1 to 3 µM
C#Cc1cc(NC(=O)NC2CCCC2)nc2nc(Nc3cccc(CN4CCC(CS(C)(=O)=O)CC4)c3)ncc12 [Example 87],0.02 to 0.1 µM,< 1 µM,> 3 µM,< 0.5 µM,1 to 3 µM
"C#Cc1cc(NC(=O)NC2CCCC2)nc2nc(Nc3cccc4c3CCN(C)C4)ncc12 [Example 88, 3-Cyclopentyl-1-{5-ethynyl-2-[(2-methyl-3,4-dihydro-1H-isoquinolin-5-yl)amino]pyrido[2,3-d]pyrimidin-7-yl}urea]",0.1 to 1 µM,> 10 µM,> 3 µM,> 3 µM,> 3 µM
C#Cc1cc(NC(=O)NC2CCCC2)nc2nc(Nc3ccccc3N3CCC(CS(C)(=O)=O)C3)ncc12 (stereo not drawn) [Example 89],1 to 50 µM,> 10 µM,> 3 µM,> 3 µM,> 3 µM
"C#Cc1cc(NC(=O)NC2CCCC2)nc2nc(Nc3ccccc3N3CCC(CS(C)(=O)=O)CC3)ncc12 [Example 90, 3-Cyclopentyl-1-[5-ethynyl-2-({2-[4-(methanesulfonylmethyl)piperidin-1-yl]phenyl}amino)pyrido[2,3-d]pyrimidin-7-yl]urea]",1 to 50 µM,> 10 µM,> 3 µM,> 3 µM,> 3 µM
"C#Cc1cc(N2C(=O)NCC23CCCC3)nc2nc(Nc3ccc(N4CCOCC4)cc3)ncc12 [Example 91, 1-(5-Ethynyl-2-{[4-(morpholin-4-yl)phenyl]amino}pyrido[2,3-d]pyrimidin-7-yl)-1,3-diazaspiro[4.4]nonan-2-one]",< 0.02 µM,< 1 µM,0.5 to 1 µM,1 to 3 µM,1 to 3 µM
"C#Cc1cc(N2C(=O)NCC23CCCC3)nc2nc(Nc3ccc(N4CCN(C5COC5)CC4)cc3)ncc12 [Example 92, 1-[5-Ethynyl-2-({4-[4-(oxetan-3-yl)piperazin-1-yl]phenyl}amino)pyrido[2,3-d]pyrimidin-7-yl]-1,3-diazaspiro[4.4]nonan-2-one]",< 0.02 µM,< 1 µM,0.5 to 1 µM,1 to 3 µM,1 to 3 µM
"C#Cc1cc(N2C(=O)NCC23CCCC3)nc2nc(Nc3ccc(N(C)C(C)=O)cc3)ncc12 [Example 93, N-{4-[(5-Ethynyl-7-{2-oxo-1,3-diazaspiro[4.4]nonan-1-yl}pyrido[2,3-d]pyrimidin-2-yl)amino]phenyl}-N-methylacetamide]",0.02 to 0.1 µM,> 10 µM,> 3 µM,1 to 3 µM,1 to 3 µM
"C#Cc1cc(N2C(=O)NCC23CCCC3)nc2nc(Nc3ccc(N(C)C(=O)CN(C)C)cc3)ncc12 [Example 94, 2-(Dimethylamino)-N-{4-[(5-ethynyl-7-{2-oxo-1,3-diazaspiro[4.4]nonan-1-yl}pyrido[2,3-d]pyrimidin-2-yl)amino]phenyl}-N-methylacetamide]",0.02 to 0.1 µM,< 1 µM,1 to 3 µM,1 to 3 µM,1 to 3 µM
C#Cc1cc(N2C(=O)NCC23CCCC3)nc2nc(Nc3ccc(OCCN(C)C)cc3)ncc12 [Example 95],0.02 to 0.1 µM,< 1 µM,1 to 3 µM,1 to 3 µM,0.5 to 1 µM
"C#Cc1cc(N2C(=O)NCC23CCCC3)nc2nc(Nc3ccc(S(C)(=O)=O)cc3)ncc12 [Example 96, 1-{5-Ethynyl-2-[(4-methanesulfonylphenyl)amino]pyrido[2,3-d]pyrimidin-7-yl}-1,3-diazaspiro[4.4]nonan-2-one]",< 0.02 µM,< 1 µM,0.5 to 1 µM,1 to 3 µM,1 to 3 µM
